# From patent US20120277286A1, “COMPOSITIONS AND METHODS FOR THE TREATMENT OR PREVENTION OF MITOCHONDRIAL DISEASES” (The Government of the USA, as represented by the Secretary, …, priority 2009, published 2012)
# Columns and labels:
# [1] = system: M17 human neuroblastoma cells; test: YFP-Parkin recruitment to mitochondria in M17 cells; format: cell-based; details: M17 cells stably transduced with control shRNA (CCCP line) or PINK1 shRNA, 10 μM CCCP, 3 hours
# Text: HeLa YFP-Parkin, PINK1+/+ SV40 transformed MEFs cells, PINK1−/− SV40 transformed MEF, M17 neuroblastoma control shRNA, M17 neuroblastoma PINK1, and Mfn1/2−/− MEF cell lines have been described previously (Narendra (2008) J Cell Biol 183: 795-803). PINK1+/+ and PINK1−/− primary MEFs were isolated from embryos using a standard protocol (Gautier (2008) Proc Natl Acad Sci USA 105: 11364-11369). Parkin+/+ and Parkin−/− transformed MEFs were created by isolation of primary cells from embryos of B6.129S4-Park2tm1Shn/J mice (Jackson Labs), using a standard protocol (Gautier (2008) Proc Natl Acad Sci USA 105: 11364-11369), followed by retroviral transduction of SV40 (Applied Biological Materials, Inc.). YFP-Parkin, YFPParkin mutants, mCherry-Parkin, PINK1-YFP, PINK1 KD-YFP, PINK1 Δ1-110-YFP, and Opa3-PINK1 Δ1-110-YFP are in C1 or N1 Clontech vectors. PINK1WT-V5, PINK1 KD-V5, and PINK1 Δ1-156-V5 are in pDest40 vector (Invitrogen). PINK1 patient mutations are in pLenti-V5 vector (Invitrogen). PINK1-myc is in a pCMBTNT vector (Promega).
# Confocal microscopy of fixed samples, scoring of Parkin recruitment and Parkininduced mitophagy, and live cell imaging were performed as described previously (Narendra (2008) J Cell Biol 183: 795-803). Experiments in Mfn1/2 null cells were performed as described previously with minor modifications. […]
# PINK1 = PINK1 accumulation by fractionation and immunoblotting; format: cell-based; details: HeLa cells, mitochondrial membrane fraction; 10 μM CCCP or 1 μM valinomycin
# Text: (§1) For PINK1 experiments, cells were fractionated using the Mitochondria Isolation Kit (Pierce), according to manufacturer's specifications with slight modifications. To isolate integral membrane proteins, membrane fractions obtained as above were carbonate extracted with 0.1M Na2CO3 fresh cold buffer and membranes were pelleted, as described in the supplemental methods. For Parkin experiments, cells were fractionated as described previously, with minor modifications described in the supplemental methods (Narendra (2008) J Cell Biol 183: 795-803). The following primary antibodies were used: anti-Parkin (PRK8) monoclonal (Santa Cruz), anti-Tom20 polyclonal (Santa Cruz), anti-cytochrome c monoclonal (BD Biosciences), anti-PINK1 polyclonal (Novus Biologicals), anti-VDAC monoclonal (Calbiochem), anti-GAPDH polyclonal (Sigma-Aldrich), anti-Tubulin monoclonal (Sigma-Aldrich), anti-V5 monoclonal (Invitrogen), anti-GFP polyclonal (Invitrogen).
# as §1, with “with slight modifications described in the supplemental methods. To isolate” for “with slight modifications. To isolate”, “minor modifications detailed in the” for “minor modifications described in the”, “supplemental methods (Narendra (2008) J Cell Biol 183: 795-803). The protease protection assay was performed as described previously (Chen (2005) J Biol Chem 280: 26185-26192). Cells were fixed and immunostained as described previously (Narendra (2008)” for “supplemental methods (Narendra (2008)”, “anti-GFP polyclonal (Invitrogen), anti-TIM23 monoclonal (BD Biosciences), and anti-Hsp60 monoclonal (Stressgen).” for “anti-GFP polyclonal (Invitrogen).”
smiles,measurement,setting,value
"N#CC(C#N)=NNc1cccc(Cl)c1 [CCCP, carbonyl cyanide m-chlorophenylhydrazone]",cells with mitochondrial YFP-Parkin,[1],67.3±3.1%
same,endogenous full length PINK1 (˜63 kDa) level after depolarization,PINK1,large increase
